Measurements taken from EP1080104B1, “CERTAIN HETEROARYL SUBSTITUTED THIOL INHIBITORS OF ENDOTHELIN-CONVERTING ENZYME” (Novartis AG, priority 1998, dated 2005).
Bridges are numbered along the chain shown (N, C = ends). Where no end group is shown, it is not given here.

Experiments:
[1] = target: rabbit antibodies that recognize specifically the carboxyl terminal tryptophan of ET-1; format: binding; details: mean ± SEM, n = 3 - 5; 4° C overnight
Protocol: Diluted samples (200 µL) obtained from the above enzyme assay are incubated at 4° C overnight with 25 µL each of [^125I]ET-1 (10,000 cpm/tube) and 1:20,000-fold diluted rabbit antibodies that recognize specifically the carboxyl terminal tryptophan of ET-1. Goat anti-rabbit antibodies coupled to magnetic beads (70 µg) are then added to each tube, and the reaction mixture is further incubated for 30 min at room temperature. The beads are pelleted using a magnetic rack. The supernatant is decanted, and the radioactivity in the pellet is counted in a gamma counter. Total and nonspecific binding are measured in the absence of nonradioactive ET-1 and anti-ET antibodies, respectively.

[2] = target: T1, recombinant human endothelin converting enzyme-1 (rhECE-1) (Homo sapiens, UniProt P42892); assay: in vitro assay for rh-ECE-1 inhibition (radioimmunoassay of ET-1 formed from big ET-1); format: biochemical; details: membrane preparation from CHO cells, human big ET-1 0.2 µM, 2 h at 37 °C
T1 construct: made in house; host or cells: Chinese hamster ovary (CHO) cells; 100,000 x g membrane pellet of the homogenate
T1 sequence (P42892 1-770): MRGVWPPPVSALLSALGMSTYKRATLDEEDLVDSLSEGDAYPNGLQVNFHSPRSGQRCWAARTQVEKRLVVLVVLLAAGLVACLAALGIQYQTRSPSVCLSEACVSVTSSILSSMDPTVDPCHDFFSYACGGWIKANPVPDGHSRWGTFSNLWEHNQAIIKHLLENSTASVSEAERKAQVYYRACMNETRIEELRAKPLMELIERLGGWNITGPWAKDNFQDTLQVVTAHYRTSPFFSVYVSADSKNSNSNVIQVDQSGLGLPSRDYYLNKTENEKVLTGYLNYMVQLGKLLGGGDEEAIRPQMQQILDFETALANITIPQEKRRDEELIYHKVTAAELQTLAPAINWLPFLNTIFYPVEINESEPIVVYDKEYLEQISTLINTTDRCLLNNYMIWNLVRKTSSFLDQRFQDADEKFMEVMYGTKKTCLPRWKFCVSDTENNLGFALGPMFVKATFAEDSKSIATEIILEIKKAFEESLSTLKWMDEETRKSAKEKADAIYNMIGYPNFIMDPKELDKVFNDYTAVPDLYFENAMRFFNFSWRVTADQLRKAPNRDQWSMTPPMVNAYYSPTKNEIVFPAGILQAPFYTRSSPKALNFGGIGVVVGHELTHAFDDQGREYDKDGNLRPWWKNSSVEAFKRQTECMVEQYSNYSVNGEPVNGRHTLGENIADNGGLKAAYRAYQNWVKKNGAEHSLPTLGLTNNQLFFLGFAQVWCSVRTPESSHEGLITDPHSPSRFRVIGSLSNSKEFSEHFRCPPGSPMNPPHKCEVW
Protocol: Cells are harvested by scraping, pelleted by centrifugation, and homogenized at 4 °C in a buffer containing 5 mM MgCl2., 1 µM pepstatin A, 100 µM leupeptin, 1 mM PMSF, and 20 mM Tris, pH 7.0, with a ratio of 2 mL of buffer/mL of cells. The cell debris is removed by brief centrifugation, and the supernatant is centrifuged again at 100,000 x g for 30 minutes. The resulting pellet is resuspended in a buffer containing 200 mM NaCl and 50 mM Tes, pH 7.0, at a protein concentration about 15 mg/mL and stored in aliquots at -80°C.
To assess the effect of an inhibitor on ECE-1 activity, 10 µg of protein is preincubated with the compound at a desired concentration for 20 min at room temperature in 50 mM TES, pH 7.0, and 0.005% Triton X-100 in a volume of 10 µL. […]
Diluted samples (200 µL) obtained from the above enzyme assay are incubated at 4° C overnight with 25 µL each of [^125I]ET-1 (10,000 cpm/tube) and 1:20,000-fold diluted rabbit antibodies that recognize specifically the carboxyl terminal tryptophan of ET-1. […] The supernatant is decanted, and the radioactivity in the pellet is counted in a gamma counter. Total and nonspecific binding are measured in the absence of nonradioactive ET-1 and anti-ET antibodies, respectively.
In order to determine the IC50 value of an inhibitor, a concentration-response curve of each inhibitor is determined. […]

IC50 values (displace [125I]ET-1 binding to the antibodies) [1]	IC50 [2]	Compound
260,000 ± 66,000 fmol	–	big ET-1: Human big ET-1, substrate of the ECE-1 assay (CSCSSLMDKECVYFCHLDIIWVNTPEHVVPYGLGSPRS; disulfide 1-15, 3-11; ends not checked; UniProt P05305 53-90, looked up)
–	~4 nM	CC(C)C[C@H](S)C(=O)NC1(C(=O)N[C@@H](Cc2ccc(-c3cccs3)nc2)C(=O)O)CCCC1 [Example 2(s), 2-{[1-(2-Mercapto-4-methyl-pentanoylamino)-cyclopentanecarbonyl]-amino}-3-[6-(thien-2-yl)-pyridin-3-yl]-propionic acid]
